Assay [1] has as its target T1, PRMT5 (Homo sapiens, UniProt O14744).
T1 construct: purchased Viva (custom protein)
Description: PRMT5 biochemical IC50 assay with no cofactor. The conditions noted are these: PRMT5, no cofactor. The text has this:
Table 1 indicates IC50 values (μM) against PRMT5 for exemplary compounds in the presence of SAM as cofactor, with no cofactor, and with MTA as cofactor, respectively (columns 4-6). […] Ki values can be calculated from the IC50 values as described in the Examples section. As detailed in the Examples section, for the assay performed in the presence of SAM, IC50=Ki×1.5 (Ki=IC50/1.5).

For assay [2], the system named is HAP1 MTAP-deleted cell line. Description: SDMA in-cell western assay, HAP1 MTAP-deleted. As to conditions: for IC50: Homo sapiens, HAP1, SDMA in-cell western, HAP1 MTAP-deleted; for MTAP intact/deleted ratio: SDMA in-cell western. It is filed as cell-based. In outline: (§1)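 Compounds were tested in HAP1 cells differing only in MTAP status (endogenous expression versus null). Cellular SDMA levels were then measured by in-cell western, giving an IC50 in each background.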

In assay [3] the test system is HAP1 MTAP-intact cell line. Description: SDMA in-cell western assay, HAP1 MTAP-intact. As to conditions: Homo sapiens, HAP1, SDMA in-cell western, HAP1 MTAP-intact; read-out: MTAP HAP1 intact IC50. It is filed as cell-based. In outline: as §1
Assay [4] deals with T1, PRMT5. Description: PRMT5 biochemical IC50 assay with MTA as cofactor. The conditions noted are these: PRMT5, MTA as cofactor; read-out: MTA IC50.
Assay [5] addresses T1, PRMT5. Description: PRMT5 biochemical IC50 assay with SAM as cofactor. As to conditions: PRMT5, SAM as cofactor; read-out: SAM IC50.
For assay [6], the system named is HAP1 MTAP-deleted cell line. Description: Viability assay, MTAP-deleted cell line. As to conditions: Homo sapiens, read-out: HAP1 MTAP deleted viability. It is filed as cell-based. The text has this: Table 1 additionally indicates IC50 values in a viability assay for the MTAP-deleted cell line (column 10), indicating the effect of treatment with compound on cell survival.

The mark [7] stands for this setting: read-out: HAP 1 MTAP deleted IC50.
Setting [8] is: IC50 ratio HAP1 MTAP-intact / HAP1 MTAP-deleted.
The mark [9] stands for this setting: HAP1, viability assay, MTAP-deleted cell line.
Setting [10] is: read-out: No Cofactor/ rel IC50.
[11] abbreviates: read-out: HAP1 MTAP deleted IC50.
Setting [12] is: IC50 ratio HAP1 MTAP-intact vs HAP1 MTAP-deleted.
Where [13] appears, read: HAP1, viability IC50, MTAP-deleted cell line.

Results on 16 compounds are retold here after patent publication US11999727B2 (Tango Therapeutics, Inc., priority 2020, dated 2024).

T1 sequence (O14744 whole entry): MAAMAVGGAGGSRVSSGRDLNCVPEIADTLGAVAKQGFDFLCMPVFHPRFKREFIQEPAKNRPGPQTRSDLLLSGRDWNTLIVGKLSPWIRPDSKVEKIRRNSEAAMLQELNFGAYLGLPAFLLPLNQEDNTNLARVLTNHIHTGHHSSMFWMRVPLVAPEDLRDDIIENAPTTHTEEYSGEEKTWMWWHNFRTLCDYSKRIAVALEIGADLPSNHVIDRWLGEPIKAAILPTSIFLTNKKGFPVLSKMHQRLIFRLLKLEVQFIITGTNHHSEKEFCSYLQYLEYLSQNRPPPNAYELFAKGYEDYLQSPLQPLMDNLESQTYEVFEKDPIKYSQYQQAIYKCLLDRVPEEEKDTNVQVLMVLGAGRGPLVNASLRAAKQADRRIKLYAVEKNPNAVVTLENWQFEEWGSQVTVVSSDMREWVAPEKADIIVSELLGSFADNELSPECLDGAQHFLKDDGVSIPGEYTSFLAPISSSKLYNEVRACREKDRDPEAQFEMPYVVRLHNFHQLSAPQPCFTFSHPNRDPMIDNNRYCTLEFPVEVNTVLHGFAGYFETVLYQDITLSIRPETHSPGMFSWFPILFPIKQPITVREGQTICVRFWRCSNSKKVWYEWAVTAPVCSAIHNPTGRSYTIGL
T1 sequence (Q9BQA1 whole entry partner): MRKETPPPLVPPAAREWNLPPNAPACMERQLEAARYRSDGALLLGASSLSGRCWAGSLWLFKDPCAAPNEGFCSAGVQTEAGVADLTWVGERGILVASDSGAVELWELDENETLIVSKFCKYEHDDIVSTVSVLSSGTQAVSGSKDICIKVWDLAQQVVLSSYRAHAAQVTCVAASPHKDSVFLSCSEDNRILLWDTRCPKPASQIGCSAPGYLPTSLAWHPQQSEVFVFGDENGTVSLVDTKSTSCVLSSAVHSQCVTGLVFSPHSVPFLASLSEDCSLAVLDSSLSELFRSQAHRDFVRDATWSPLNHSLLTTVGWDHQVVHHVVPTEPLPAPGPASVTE

Consider `CCc1cc(NC(=O)C(=O)N2C[C@H](C)CC[C@H]2c2ccc3cnccc3c2)cnc1N` (single isomer, unassigned) [Compound 919], for which the IC50 was less than 50 nM on PRMT5 [1] (read-out: No Cofactor/rel IC50); less than 100 nM in assay [2] (setting [7]); 100 to 1000 nM in assay [3]; less than 50 nM on PRMT5 [4]; 50 to 500 nM at PRMT5 [5]; less than 1000 nM in assay [6] (setting [9]). In addition, in assay [2] (setting [8]), the MTAP intact/deleted ratio result was “A (an IC50 ratio greater than or equal to 10 fold)”.
Regarding `Cc1cc(NC(=O)C(=O)N2C[C@H](C)CC[C@H]2c2ccc(F)c3[nH]ncc23)cnc1N` (racemic) [Compound 1019], the IC50 at PRMT5 [1] (read-out: No Cofactor/rel IC50) is 50 to 500 nM; in assay [2] (setting [7]), less than 100 nM; in assay [3], greater than 1000 nM; on PRMT5 [4], 50 to 500 nM; at PRMT5 [5], 50 to 500 nM; in assay [6] (setting [9]), 1000 to 10000 nM. In addition, in assay [2] (setting [8]), the MTAP intact/deleted ratio entry is recorded as “A (an IC50 ratio greater than or equal to 10 fold)”.
`Cc1cc(NC(=O)C(=O)N2C[C@@H]3CC[C@@H](C3)[C@H]2c2ccccc2)cnc1N` (single isomer, unassigned) [Compound 64]: the IC50 at PRMT5 [1] (setting [10]) is 50 to 500 nM; in assay [2] (setting [7]), less than 100 nM; in assay [3], greater than 1000 nM; at PRMT5 [4] it was less than 50 nM; at PRMT5 [5], 50 to 500 nM; in assay [6] (setting [9]) it was greater than 10000 nM. Besides, in assay [2] (setting [8]), the “MTAP intact/deleted ratio” value was “A (an IC50 ratio greater than or equal to 10 fold)”.
On to `CCc1cc(NC(=O)C(=O)N2C[C@H](C)[C@H](OC)C[C@H]2c2ccc3scnc3c2)cnc1N` (single isomer, unassigned) [Compound 1138], for which the IC50 was greater than 500 nM at PRMT5 [1] (read-out: No Cofactor/rel IC50); 100 to 1000 nM in assay [2] (setting [11]); greater than 1000 nM in assay [3]; greater than 500 nM on PRMT5 [4]; greater than 500 nM on PRMT5 [5]; 1000 to 10000 nM in assay [6] (setting [9]).
With `Cc1cc(NC(=O)C(=O)N2C[C@@H](C)CC[C@@H]2c2ccc3sc(C4CCN(C5COC5)CC4)nc3c2)cnc1N` [Compound 1268, N-(6-amino-5-methylpyridin-3-yl)-2-((2R,5S)-5-methyl-2-(2-(1-(oxetan-3-yl)piperidin-4-yl)benzo[d]thiazol-5-yl)piperidin-1-yl)-2-oxoacetamide], the IC50 on PRMT5 [1] (setting [10]) was less than 50 nM; in assay [2] (setting [7]), less than 100 nM; in assay [3], 100 to 1000 nM; at PRMT5 [4], less than 50 nM; on PRMT5 [5], less than 50 nM; in assay [6] (HAP1, viability, HAP1 MTAP-deleted cell line) it was less than 1000 nM. For the same compound, the “MTAP intact/deleted ratio” value in assay [2] (setting [8]) is given as “A (an IC50 ratio greater than or equal to 10 fold)”.
Take `Cc1cc(NC(=O)C(=O)N2C[C@@H](C)CC[C@@H]2c2ccc3sc(-c4cnn(C)c4)nc3c2)cnc1N` (racemic) [Compound 1104, rac-N-(6-amino-5-methylpyridin-3-yl)-2-((2R,5S)-5-methyl-2-(2-(1-methyl-1H-pyrazol-4-yl)benzo[d]thiazol-5-yl)piperidin-1-yl)-2-oxoacetamide]: the IC50 on PRMT5 [1] (read-out: No Cofactor/rel IC50) is less than 50 nM; in assay [2] (setting [11]), less than 100 nM; in assay [3], less than 100 nM; at PRMT5 [4], less than 50 nM; on PRMT5 [5], 50 to 500 nM; in assay [6] (setting [9]) it was less than 1000 nM. In addition, the MTAP intact/deleted ratio result in assay [2] (setting [12]) was “B (an IC50 ratio greater than or equal to 3 fold but lower than 10 fold)”.
Consider `C[C@@H]1CC[C@@H](c2cc(F)c(O)c(F)c2)N(C(=O)C(=O)Nc2cncc(C(N)=O)c2)C1` (racemic) [Compound 560, rac-5-[[2-[(2R,5S)-2-(3,5-difluoro-4-hydroxy-phenyl)-5-methyl-1-piperidyl]-2-oxo-acetyl]amino]pyridine-3-carboxamide], for which the IC50 was 50 to 500 nM at PRMT5 [1] (read-out: No Cofactor/rel IC50); 100 to 1000 nM in assay [2] (setting [7]); greater than 1000 nM in assay [3]; 50 to 500 nM on PRMT5 [4]; 50 to 500 nM at PRMT5 [5]; greater than 10000 nM in assay [6] (setting [13]). In assay [2] (setting [8]), the MTAP intact/deleted ratio entry is listed as “A (an IC50 ratio greater than or equal to 10 fold)”.
For the compound `CCc1cc(NC(=O)C(=O)N2C[C@@H](C)CC[C@@H]2c2ccc3cn(C)nc3c2)cnc1N` [Compound 1199, N-(6-amino-5-ethyl-3-pyridyl)-2-[(5S)-5-methyl-2-(2-methylindazol-6-yl)-1-piperidyl]-2-oxo-acetamide], the IC50 is less than 50 nM on PRMT5 [1] (read-out: No Cofactor/rel IC50); less than 100 nM in assay [2] (setting [11]); 100 to 1000 nM in assay [3]; less than 50 nM on PRMT5 [4]; 50 to 500 nM on PRMT5 [5]; less than 1000 nM in assay [6] (setting [9]). For the same compound, the MTAP intact/deleted ratio result in assay [2] (setting [12]) is “A (an IC50 ratio greater than or equal to 10 fold)”.
As for `COc1ncc(NC(=O)C(=O)N2C[C@@H](C)C(F)(F)C[C@@H]2c2ccc(C)nc2)cc1C(N)=O` (single isomer, unassigned) [Compound 908], the IC50 on PRMT5 [1] (read-out: No Cofactor/rel IC50) was 50 to 500 nM; in assay [2] (setting [7]), less than 100 nM; in assay [3], greater than 1000 nM; at PRMT5 [4], less than 50 nM; on PRMT5 [5], 50 to 500 nM; in assay [6] (setting [9]), 1000 to 10000 nM. Also, in assay [2] (setting [8]), the MTAP intact/deleted ratio entry is listed as “A (an IC50 ratio greater than or equal to 10 fold)”.
Regarding `Cc1cc(NC(=O)C(=O)N2C[C@@H](C)CC[C@@H]2c2cc(Cl)cc(C(F)(F)F)c2)cnc1N` (single isomer, unassigned) [Compound 665], the IC50 at PRMT5 [1] (read-out: No Cofactor/rel IC50) was 50 to 500 nM; in assay [2] (setting [7]), 100 to 1000 nM; in assay [3], greater than 1000 nM; at PRMT5 [4] it was less than 50 nM; on PRMT5 [5], 50 to 500 nM; in assay [6] (setting [13]) it was 1000 to 10000 nM. Also, the MTAP intact/deleted ratio result in assay [2] (setting [8]) is reported as “A (an IC50 ratio greater than or equal to 10 fold)”.
Turning to `CC1(C)CCC(c2ccccc2)N(C(=O)C(=O)Nc2cncc(C(N)=O)c2)C1` (stereo not drawn) [Compound 45, 5-(2-(5,5-dimethyl-2-phenylpiperidin-1-yl)-2-oxoacetamido)nicotinamide], the IC50 on PRMT5 [1] (setting [10]) was greater than 500 nM; in assay [2] (setting [7]), 100 to 1000 nM; in assay [3], greater than 1000 nM; on PRMT5 [4] it was 50 to 500 nM; on PRMT5 [5] it was greater than 500 nM; in assay [6] (setting [9]), greater than 10000 nM. The “MTAP intact/deleted ratio” value in assay [2] (setting [8]) is on record as “A (an IC50 ratio greater than or equal to 10 fold)”.
As for `Cc1cccc(C2CCCCN2C(=O)C(=O)Nc2cnc(N)c(C)c2)c1` (racemic) [Compound 31, N-(6-Amino-5-methyl-3-pyridyl)-2-[2-(m-tolyl)-1-piperidyl]-2-oxo-acetamide], the IC50 on PRMT5 [1] (setting [10]) was 50 to 500 nM; in assay [2] (setting [7]), 100 to 1000 nM; in assay [3] it was greater than 1000 nM; on PRMT5 [4], less than 50 nM; at PRMT5 [5], 50 to 500 nM; in assay [6] (setting [9]) it was greater than 10000 nM. In addition, the “MTAP intact/deleted ratio” value in assay [2] (setting [8]) is reported as “A (an IC50 ratio greater than or equal to 10 fold)”.
`COc1ncc(NC(=O)C(=O)N2C[C@@H](C)CC[C@@H]2c2ccc3c(c2)CC(=O)N3)cc1C(N)=O` (single isomer, unassigned) [Compound 454]: the IC50 is less than 50 nM on PRMT5 [1] (read-out: No Cofactor/rel IC50); less than 100 nM in assay [2] (setting [11]); 100 to 1000 nM in assay [3]; less than 50 nM on PRMT5 [4]; 50 to 500 nM on PRMT5 [5]; less than 1000 nM in assay [6] (setting [9]). Further, in assay [2] (setting [8]), the MTAP intact/deleted ratio result is “A (an IC50 ratio greater than or equal to 10 fold)”.
Consider `Cc1cc(NC(=O)C(=O)N2C[C@@H](C)CC[C@@H]2c2cnc3[nH]ncc3c2)cnc1N` (single isomer, unassigned) [Compound 573], for which the IC50 on PRMT5 [1] (read-out: No Cofactor/rel IC50) is greater than 500 nM; in assay [2] (setting [7]), greater than 1000 nM; in assay [3], greater than 1000 nM; at PRMT5 [4], greater than 500 nM; on PRMT5 [5], greater than 500 nM; in assay [6] (setting [13]), greater than 10000 nM. The MTAP intact/deleted ratio result in assay [2] (setting [8]) is “C (an IC50 ratio of less than 3 fold)”.
For `Cc1cc(NC(=O)C(=O)N2C[C@H](C)CC[C@H]2c2ccc(F)c(Cl)c2)cnc1N` (single isomer, unassigned) [Compound 596], the IC50 at PRMT5 [1] (read-out: No Cofactor/rel IC50) was less than 50 nM; in assay [2] (setting [7]), less than 100 nM; in assay [3], 100 to 1000 nM; on PRMT5 [4], less than 50 nM; at PRMT5 [5], 50 to 500 nM; in assay [6] (setting [13]), less than 1000 nM. Further, the MTAP intact/deleted ratio result in assay [2] (setting [8]) is “A (an IC50 ratio greater than or equal to 10 fold)”.
On to `CCc1cc(NC(=O)C(=O)N2C[C@@H](C)CC[C@@H]2c2cccc3[nH]ncc23)cnc1N` (single isomer, unassigned) [Compound 928], for which the IC50 on PRMT5 [1] (read-out: No Cofactor/rel IC50) is less than 50 nM; in assay [2] (setting [7]), less than 100 nM; in assay [3], greater than 1000 nM; on PRMT5 [4], less than 50 nM; on PRMT5 [5], 50 to 500 nM; in assay [6] (setting [9]) it was less than 1000 nM. Further, in assay [2] (setting [8]), the MTAP intact/deleted ratio result is “A (an IC50 ratio greater than or equal to 10 fold)”.
